In the NIST ThermoML archive (doi:10.1016/j.jct.2015.01.001):
“And” between values parts separate entries of the source, which are not always exact repeats. Equal values may be shown once.

Key:
[1] = xn = mol fraction of the nth substance listed; details: Liquid; for viscosity: Falling or rolling sphere viscometry; for mass density: Vibrating tube method
[2] = Liquid; for vapor or sublimation pressure: Closed cell (Static) method; for viscosity: Falling or rolling sphere viscometry; for mass density: Vibrating tube method

O=C=O [carbon dioxide] + CO
[1]
Details	mass density [kg/m3]	viscosity [mPa·s]
298.15 K, 467.6 kPa, x1 = 0.037	792.7	0.523
298.15 K, 1827.6 kPa, x1 = 0.155	811.4	0.45
298.15 K, 2059.2 kPa, x1 = 0.176	814.6	0.436
298.15 K, 2411.7 kPa, x1 = 0.207	819.5	0.418
298.15 K, 2609.8 kPa, x1 = 0.225	822.2	0.407
298.15 K, 3070.8 kPa, x1 = 0.268	828.6	0.383
303.15 K, 514.4 kPa, x1 = 0.034	787	0.497
303.15 K, 1357.8 kPa, x1 = 0.099	796.3	0.459
303.15 K, 2202.1 kPa, x1 = 0.164	805.7	0.421
303.15 K, 2582.4 kPa, x1 = 0.194	809.9	0.403
303.15 K, 2803.7 kPa, x1 = 0.212	812.4	0.392
303.15 K, 3272.7 kPa, x1 = 0.249	817.7	0.37
308.15 K, 543.8 kPa, x1 = 0.032	783.2	0.467
308.15 K, 1454.6 kPa, x1 = 0.094	791.6	0.434
308.15 K, 2129.6 kPa, x1 = 0.14	797.9	0.408
308.15 K, 2391.6 kPa, x1 = 0.158	800.3	0.398
308.15 K, 2760.3 kPa, x1 = 0.184	803.7	0.385
308.15 K, 3001.7 kPa, x1 = 0.201	806	0.375
308.15 K, 3529.4 kPa, x1 = 0.238	810.9	0.356
313.15 K, 629.5 kPa, x1 = 0.031	777.5	0.443
313.15 K, 1587.2 kPa, x1 = 0.091	787.1	0.41
313.15 K, 2265.6 kPa, x1 = 0.133	793.6	0.39
313.15 K, 2523.6 kPa, x1 = 0.149	796	0.378
313.15 K, 2943.3 kPa, x1 = 0.175	800.1	0.368
313.15 K, 3205.9 kPa, x1 = 0.191	802.6	0.356
313.15 K, 3774.9 kPa, x1 = 0.227	808	0.337

CO [methanol]
[2]
Details	mass density [kg/m3]	vapor or sublimation pressure [kPa]	viscosity [mPa·s]
298.15 K	786.7	17	0.544
303.15 K	782	21.9	0.512
308.15 K	777.3	27.9	0.486
313.15 K	772.5	35.6	0.46

CO [methanol] + O=C=O
[1], x2 = 0
Details	mass density [kg/m3]	viscosity [mPa·s]
298.15 K, 17 kPa	786.7	0.544
303.15 K, 21.9 kPa	782	0.512
308.15 K, 27.9 kPa	777.3	0.486
313.15 K, 35.6 kPa	772.5	0.46

O=S1(=O)CCCC1 [sulfolane]
[2]
Details	mass density [kg/m3]	viscosity
303.15 K	1262	10.3 mPa·s and 10.2 mPa·s
313.15 K	1253	8.01 mPa·s
323.15 K	1244	6.32 mPa·s
333.15 K	1235	5.16 mPa·s
343.15 K	1226	4.22 mPa·s
353.15 K	1218	3.5 mPa·s
363.15 K	1209	2.92 mPa·s
